# Values joined by “and” are separate entries in the source; they are usually repeats but may differ in a detail not shown here. Identical values can stand only once.
# Key:
# [1] = Previous metabolic stability studies of 3APS; assay type: in vitro ADME
# Text: Those studies include: 3APS metabolic stability in pooled human hepatocytes, human, rat and dog liver microsomes, human intestinal microflora, pooled human liver cytosol, and human arylamine N-acetyltransferase (See Examples 4 and 5).
# [2] = Bioavailability of exemplary compounds in mice (3APS quantified in plasma); assay type: in vivo; settings: mouse, oral, 3APS in plasma
# Method: Selected exemplary compounds were tested for bioavailability in mice. Bioavailability estimates are performed for 3APS after administration of molar equivalent the selected compounds. […] The animals are anesthetized with isoflurane before blood collection (approximately 45 sec). Samples are collected at 5, 30, 60, 120, 180, 240 and 360 min post intravenous administration and at 15, 30, 60, 120, 180, 240 and 360 min post oral administration. One animal is used to obtain a baseline sample (pre-dose sample). Blood samples are collected into Sarstedt™ micro tubes (EDTA KE/1.3 ml), kept on ice until centrifugation at 4° C. at a minimum speed of 3000 rpm (1620 G) for 10 min. Plasma samples are transferred into Eppendorf™ tubes, immediately placed on dry ice and stored at −80° C. Plasma samples are stored frozen at […] pending analysis.
# Compounds in mouse plasma are extracted using protein precipitation. Quantitation of 3APS in mouse plasma matrix is achieved using LC-MS detection. Sample concentration is calculated using a calibration curve.
# [3] = Absorption, excretion and plasma kinetics of 14C-3APS in humans; assay type: in vivo, human
# Text: Following the identification of 3APS metabolites, plasma and urine samples from this human AME study were reanalyzed for 3APS and 3APS metabolite (2-carboxyethanesulfonic acid, 3-hydroxy-1-propanesulfonic acid and 3-acetylamino-1-propanesulfonic acid) concentrations using qualified HPLC and MS/MS methods to determine the metabolic profile of ^14C-3APS in human.
# [4] = Metabolic profiling of 14C-3APS in dogs; assay type: in vivo, male Beagle dogs; settings: Dog plasma
# Method: (§1) Three single dose studies were conducted in mice, rats and dogs to determine the metabolic profile of ^14C-3APS in plasma, urine and feces. In the first study, twenty-seven male CD-1 mice received a single dose of 100 mg/kg (20 μCi/animal) of ^14C-3APS by oral gavage. Blood samples (3 animals/time point) were collected for 12 hr following drug administration while urine and feces (3 animals/time point) samples were collected for 96 hr. In the second study, eight male Sprague-Dawley rats received a single dose of 100 mg/kg (50 μCi/animal) of ^14C-3APS by oral gavage while in the third study, three male Beagle dogs received a single dose of 100 mg/kg (30 μCi/kg) of ^14C-3APS by oral gavage. For the rat and dog studies, blood samples were collected for 24 hr following drug administration while urine and feces samples were collected for 72 hr. All samples were analyzed for total radioactivity using appropriate sample preparation procedures and scintillation counting. Plasma and urine samples were also analyzed for 3APS and 3APS metabolites (2-carboxyethanesulfonic acid, 3-hydroxy-1-propanesulfonic acid and 3-acetylamino-1-propanesulfonic acid) concentrations using qualified HPLC and MS/MS methods.
# [5] = Single oral and IV administration of 14C-3APS to rats; assay type: in vivo, male Sprague-Dawley rats; settings: for AUC0-∞ / AUC(0-inf): 100 mg/kg 14C-3APS, rats, 100 mg/kg; for AUC(0-inf): male, Sprague-Dawley, rat, plasma
# Method: The purpose of this study was to investigate the absorption, metabolism and excretion profiles of ^14C-3APS following a single intravenous bolus and oral administration to rats. Thirty-six male Sprague-Dawley rats received a single 100 mg/kg (˜50 μCi/animal) dose of ^14C-3APS by an IV bolus injection (water or isotonic saline solution) and an additional 36 male rats received the same dose level by oral gavage (in water). Blood, urine, feces, brain and CSF samples were collected for up to 72 hr following dose administration. Plasma, urine, brain and CSF concentrations of 3APS and 2-carboxyethanesulfonic acid (3APS major metabolite) were measured using LC and MS/MS detection method. Plasma, urine, feces, brain and CSF samples were analyzed for total radioactivity using appropriate sample preparation procedures and scintillation counting.
# [6] = PK brain and plasma levels of oral Compound A2 and 3-APS in mice; assay type: in vivo; settings: oral 0.18 mmol/kg
# Method: Compounds A2 and 3-aminopropanesulfonic acid were tested for pharmacokinetic parameters in mice. Parmacokinetic parameters (Cmax, Tmax, T½, AUC) are evaluated for 3APS after administration of a molar equivalent of each compound. Blood samples (approximately 1 ml) and brain samples are collected from each of 3 animals at time points 5, 15, 30 minutes, 1, 2, 4, 6, 12, and 24 hours. […] A 2-fold increase in plasma concentration (Cmax) of 3-APS was observed when orally administering Compound A2 compared to 3-APS.
# [7] = test system: human hepatocyte (HepG2); test: Incubation of 3APS in human hepatocyte (HepG2) culture media; assay type: in vitro ADME; settings: after incubation of 3APS in HepG2 culture media
# Method: In another in vitro model employing organotypic hippocampal slice culture, the conversion of 3APS to 2-carboxyethanesulfonic acid was time-dependent. More than 60% of 3APS was converted to 2-carboxyethanesulfonic acid after 3-day incubation in the culture media. 2-carboxyethanesulfonic acid was also detected after incubation of 3APS in human hepatocyte (HepG2) culture media.
# [8] = Metabolic profiling of 14C-3APS in mice; assay type: in vivo, male CD-1 mice; settings: Mouse plasma
# Method: as §1
# [9] = Single oral, intravenous and portal administration of 3APS in rats; assay type: in vivo, male Sprague-Dawley rats
# Method: The purpose of this study was to compare the pharmacokinetic profile of 3APS following a single dose administration either orally, intravenously or into the portal vein to male Sprague-Dawley rats. The oral, intravenous and portal routes of administration were selected to determine the intestinal and hepatic first-pass effects in the rat. Three groups of 4 male Sprague-Dawley rats were assigned to receive a single dose of 250 mg/kg 3APS by different routes of administration. One group received 3APS as an IV bolus administration (in water or isotonic saline solution), one group by oral gavage (in water) and the last group via a catheter into the portal vein (in water or isotonic saline solution). Blood samples were collected for 24 hours following dose administration. Plasma concentrations of 3APS and 2-carboxyethanesulfonic acid (the major metabolite of 3APS) were determined using LC and MS/MS method.
# [10] = analyte after single oral 100 mg/kg 14C-3APS
# [11] = male, Beagle, dog, plasma, po, 100 mg/kg, analyte after single oral 100 mg/kg 14C-3APS
# [12] = male, CD-1, mouse, plasma, po, 100 mg/kg, analyte after single oral 100 mg/kg 14C-3APS
smiles,measurement,setting,value
"NCCCS(=O)(=O)O [Compound 3APS, 3-amino-1-propanesulfonic acid]",in vitro metabolism,[1],no in vitro metabolism
same,Tmax,[2],15 min
same,% of total radioactivity in plasma based on AUC0-τ,"[3]; healthy subjects, oral 14C-3APS",approximately 48%
same,% of total amount of radioactivity excreted in urine,[3]; human urine,approximately 15%
same,AUC0-τ,[4]; [10],24.5 µmol·min/mL
same,AUC∞,[4]; [10],25.3 µmol·min/mL
same,T1/2,"[4]; analyte after single oral 100 mg/kg 14C-3APS, 100 mg/kg",302 min
same,Tmax,[4]; [11],~30 min
same,half-life,[4]; [11],~300 min
same,Cmax,"[4]; male, Beagle, analyte (3APS or metabolite) after single oral 100 mg/kg 14C-3APS",250 µM
same,AUC0-∞,"[5]; IV, individual animals 1001-1004",1420 µM·h and 1591 µM·h and 1147 µM·h
same,% of total radioactivity (AUC0-∞ analyte/AUC total radioactivity),"[5]; IV, Mean",89%
same,AUC0-∞,"[5]; PO, individual animals 3001-3004",539 µM·h and 407 µM·h and 471 µM·h
same,% of total radioactivity (AUC0-∞ analyte/AUC total radioactivity),"[5]; PO, Mean",about 68%
same,AUC(0-inf),"[5]; iv, Mean",1420 µM·h
same,AUC(0-inf),"[5]; iv, individual animals 1001-1004",1530 µM·h
same,AUC(0-inf),"[5]; po, Mean",507 µM·h
same,AUC(0-inf),"[5]; po, individual animals 3001-3004",610 µM·h
same,Brain AUC,[6]; 3-APS analysed,BLLQ
same,Brain Cmax,[6]; 3-APS analysed,BLLQ
same,Brain concentration of 3-APS,[6],could not be quantified
same,formation of 2-carboxyethanesulfonic acid,[7],detected
same,AUC0-τ,[8]; [10],15.5 µmol·min/mL
same,AUC∞,[8]; [10],15.7 µmol·min/mL
same,Tmax,[8]; [12],~30 min
same,half-life,[8]; [12],~120 min
same,Cmax,"[8]; male, CD-1, analyte (3APS or metabolite) after single oral 100 mg/kg 14C-3APS",97.7 µM
same,metabolism of 3APS associated with hepatic first-pass,"[9]; hepatoportal versus intravenous exposure, 250 mg/kg",24%
same,bioavailability based on the AUC∞,[9]; oral 250 mg/kg,about 38%
same,metabolism of 3APS associated with intestinal first-pass,"[9]; oral versus hepatoportal exposure, 250 mg/kg",43%

# Source: patent publication US11020360B2, “Methods, compounds, compositions and vehicles for delivering 3-amino-1-propanesulfonic acid” (Bellus Health, Inc., priority 2006, dated 2021)
